# Source: ChEMBL document CHEMBL1135273, “5-Phosphonomethylquinoxalinediones as competitive NMDA receptor antagonists with a preference for the human 1A/2A, rather than 1A/2B receptor composition” (Bioorg Med Chem Lett, 2002)
# pIC50: −log10 of the molar value. Calls of active or inactive are those of the source. The rule behind the calls is not given here.
# Key:
# [1] = biological target: Glutamate [NMDA] receptor; assay: In vitro inhibitory activity at 1 uM concentration against N-methyl-D-aspartate glutamate receptor, using [3H]CGP-39653 binding assay; assay type: protein-complex assay
# [2] = biological target: Glutamate NMDA receptor; GRIN1/GRIN2A (Homo sapiens, UniProt Q05586+Q12879); assay: Inhibitory activity against Xenopus laevis oocyte expressing 1A/2A heteromeric human NMDA (hNMDA) receptor; assay type: protein-complex assay
# Glutamate NMDA receptor; GRIN1/GRIN2A, sequence (Q12879 whole entry, other chains not shown): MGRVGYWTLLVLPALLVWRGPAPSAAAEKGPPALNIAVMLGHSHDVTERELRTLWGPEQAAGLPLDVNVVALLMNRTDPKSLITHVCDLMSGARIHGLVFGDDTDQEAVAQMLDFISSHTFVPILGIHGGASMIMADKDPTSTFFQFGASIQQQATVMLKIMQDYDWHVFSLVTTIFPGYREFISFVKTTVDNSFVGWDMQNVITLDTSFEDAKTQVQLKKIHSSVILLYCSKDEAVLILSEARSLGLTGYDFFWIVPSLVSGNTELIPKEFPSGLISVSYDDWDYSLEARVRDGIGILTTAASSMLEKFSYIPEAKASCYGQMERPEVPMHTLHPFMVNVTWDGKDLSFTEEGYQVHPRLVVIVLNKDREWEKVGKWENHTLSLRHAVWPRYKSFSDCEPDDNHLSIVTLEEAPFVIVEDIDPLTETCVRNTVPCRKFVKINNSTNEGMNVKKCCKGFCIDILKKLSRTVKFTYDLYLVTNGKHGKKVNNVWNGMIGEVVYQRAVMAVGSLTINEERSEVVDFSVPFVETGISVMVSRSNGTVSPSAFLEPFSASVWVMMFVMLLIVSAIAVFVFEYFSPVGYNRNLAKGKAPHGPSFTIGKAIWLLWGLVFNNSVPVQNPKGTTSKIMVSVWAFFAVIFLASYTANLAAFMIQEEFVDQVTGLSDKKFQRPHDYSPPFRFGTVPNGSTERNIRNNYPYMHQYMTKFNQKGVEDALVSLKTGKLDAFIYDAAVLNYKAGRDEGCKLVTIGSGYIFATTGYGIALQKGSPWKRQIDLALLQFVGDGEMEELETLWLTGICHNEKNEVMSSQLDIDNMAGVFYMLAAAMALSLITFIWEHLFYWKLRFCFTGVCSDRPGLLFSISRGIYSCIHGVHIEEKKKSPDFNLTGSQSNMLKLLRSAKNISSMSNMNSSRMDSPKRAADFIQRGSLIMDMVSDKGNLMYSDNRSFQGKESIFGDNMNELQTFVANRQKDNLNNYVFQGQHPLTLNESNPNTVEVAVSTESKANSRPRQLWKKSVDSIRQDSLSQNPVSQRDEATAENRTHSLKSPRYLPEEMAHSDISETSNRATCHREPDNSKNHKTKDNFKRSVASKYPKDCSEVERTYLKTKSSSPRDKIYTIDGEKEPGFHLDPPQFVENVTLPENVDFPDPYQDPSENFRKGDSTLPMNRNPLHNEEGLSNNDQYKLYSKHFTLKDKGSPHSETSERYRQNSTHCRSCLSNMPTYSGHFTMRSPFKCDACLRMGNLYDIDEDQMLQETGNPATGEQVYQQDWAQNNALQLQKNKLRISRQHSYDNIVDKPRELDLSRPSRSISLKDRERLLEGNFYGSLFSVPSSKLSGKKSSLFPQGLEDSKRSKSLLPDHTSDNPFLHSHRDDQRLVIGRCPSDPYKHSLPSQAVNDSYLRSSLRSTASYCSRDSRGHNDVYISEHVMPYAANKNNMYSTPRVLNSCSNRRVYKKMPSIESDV
# [3] = species: Mus musculus; assay: Anticonvulsant effect in mouse electroshock-induced seizure test (MES).; assay type: functional
# [4] = biological target: Glutamate NMDA receptor; GRIN1/GRIN2B (Homo sapiens, UniProt Q05586+Q13224); assay: Inhibitory activity against Xenopus laevis oocyte expressing 1A/2B heteromeric human NMDA (hNMDA) receptor; assay type: protein-complex assay
# Glutamate NMDA receptor; GRIN1/GRIN2B, sequence (Q13224 whole entry, other chains not shown): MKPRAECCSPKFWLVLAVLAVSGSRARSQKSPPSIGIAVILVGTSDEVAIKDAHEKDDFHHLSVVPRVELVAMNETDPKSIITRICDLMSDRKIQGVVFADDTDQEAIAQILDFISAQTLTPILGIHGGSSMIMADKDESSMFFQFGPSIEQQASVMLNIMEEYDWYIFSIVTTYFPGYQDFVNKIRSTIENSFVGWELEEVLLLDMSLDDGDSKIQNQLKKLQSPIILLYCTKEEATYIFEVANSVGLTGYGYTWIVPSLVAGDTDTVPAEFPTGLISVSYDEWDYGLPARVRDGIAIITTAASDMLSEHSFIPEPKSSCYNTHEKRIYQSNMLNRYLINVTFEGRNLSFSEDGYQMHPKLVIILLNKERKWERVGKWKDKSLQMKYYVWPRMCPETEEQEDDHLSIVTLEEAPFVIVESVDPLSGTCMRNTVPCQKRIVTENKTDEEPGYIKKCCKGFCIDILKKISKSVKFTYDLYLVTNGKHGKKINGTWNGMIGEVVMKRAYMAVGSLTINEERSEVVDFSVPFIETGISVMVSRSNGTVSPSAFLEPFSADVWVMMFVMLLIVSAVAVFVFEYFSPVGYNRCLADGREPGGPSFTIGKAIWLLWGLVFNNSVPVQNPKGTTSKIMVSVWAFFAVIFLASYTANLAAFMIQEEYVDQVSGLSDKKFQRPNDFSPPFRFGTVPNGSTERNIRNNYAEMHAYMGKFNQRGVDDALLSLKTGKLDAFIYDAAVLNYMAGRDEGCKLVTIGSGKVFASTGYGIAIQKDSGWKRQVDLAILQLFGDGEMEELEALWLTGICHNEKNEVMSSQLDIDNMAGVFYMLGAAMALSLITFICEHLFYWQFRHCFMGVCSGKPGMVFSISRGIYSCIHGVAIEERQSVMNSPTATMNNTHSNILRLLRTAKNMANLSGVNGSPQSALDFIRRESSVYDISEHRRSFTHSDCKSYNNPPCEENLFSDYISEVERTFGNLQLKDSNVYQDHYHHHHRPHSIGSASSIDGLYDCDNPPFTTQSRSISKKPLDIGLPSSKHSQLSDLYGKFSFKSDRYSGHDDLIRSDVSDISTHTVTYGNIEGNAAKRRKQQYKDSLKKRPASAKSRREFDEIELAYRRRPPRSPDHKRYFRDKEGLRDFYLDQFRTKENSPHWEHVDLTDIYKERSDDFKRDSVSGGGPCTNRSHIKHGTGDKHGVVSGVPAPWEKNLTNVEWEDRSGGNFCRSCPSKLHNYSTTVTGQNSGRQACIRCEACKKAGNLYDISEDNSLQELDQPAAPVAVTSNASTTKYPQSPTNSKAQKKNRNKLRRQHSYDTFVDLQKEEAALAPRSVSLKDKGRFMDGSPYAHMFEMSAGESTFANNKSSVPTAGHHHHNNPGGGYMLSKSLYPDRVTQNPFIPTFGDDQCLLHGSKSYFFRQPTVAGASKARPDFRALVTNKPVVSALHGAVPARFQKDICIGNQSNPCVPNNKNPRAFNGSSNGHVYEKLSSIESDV
# [5] = tested on: GRIN1/GRIN2A vs GRIN1/GRIN2B (Homo sapiens); assay: Ratio of human NMDA 1A/2A receptor to human NMDA 1A/2B receptor was determined in xenopus oocytes; >1/17; conditions: Oocyte
# [6] = tested on: GRIN1/GRIN2A vs GRIN1/GRIN2B (Homo sapiens); assay: Ratio of human NMDA 1A/2A receptor to human NMDA 1A/2B receptor was determined in xenopus oocytes; 1/9; conditions: Oocyte
# [7] = biological target: Glutamate [NMDA] receptor (Homo sapiens) (UniProt Q05586+Q12879+Q13224+O15399+O60391+Q14957+Q8TCU5); assay: The compound was tested in vitro for percent inhibition at 1 uM concentration against N-methyl-D-aspartate glutamate receptor by using [3H]CGP-39653 binding assay; assay type: protein-complex assay
# [8] = tested on: Mus musculus; assay: Compound at a dose 50 mg/kg was administered intraperitoneally into mouse and percent protection was determined after 1 hour; assay type: functional; conditions: route intraperitoneal
# [9] = tested on: GRIN1/GRIN2A vs GRIN1/GRIN2B (Homo sapiens); assay: Ratio of human NMDA 1A/2A receptor to human NMDA 1A/2B receptor was determined in xenopus oocytes; 1/50; conditions: Oocyte
# [10] = tested on: GRIN1/GRIN2A vs GRIN1/GRIN2B (Homo sapiens); assay: Ratio of human NMDA 1A/2A receptor to human NMDA 1A/2B receptor was determined in xenopus oocytes; 1/10; conditions: Oocyte
# [11] = tested on: GRIN1/GRIN2A vs GRIN1/GRIN2B (Homo sapiens); assay: Ratio of human NMDA 1A/2A receptor to human NMDA 1A/2B receptor was determined in xenopus oocytes; 1/8; conditions: Oocyte
# [12] = tested on: Mus musculus; assay: Compound was evaluated for its anticonvulsant effect in mouse electroshock-induced seizure test (MES), 8 hr after oral administration; assay type: functional
# [13] = Compound was tested in vitro for its inhibitory activity against Xenopus laevis oocyte expressing 1A/2B heteromeric human NMDA (hNMDA) receptor
# [14] = Compound was tested in vitro for its inhibitory activity against Xenopus laevis oocyte expressing 1A/2A heteromeric human NMDA (hNMDA) receptor
# [15] = tested on: Mus musculus; assay: Compound was evaluated for its anticonvulsant effect in mouse electroshock-induced seizure test (MES), 8 hr after intraperitoneal administration; assay type: functional; conditions: ip
# [16] = biological target: Glutamate [NMDA] receptor; assay: Compound was tested in vitro for its inhibitory activity at 1 uM concentration against N-methyl-D-aspartate glutamate receptor by using [3H]CGP-39653 binding assay; assay type: protein-complex assay
# [17] = tested on: GRIN1/GRIN2A vs GRIN1/GRIN2B (Homo sapiens); assay: Ratio of human NMDA 1A/2A receptor to human NMDA 1A/2B receptor was determined in xenopus oocytes; 1/15; conditions: Oocyte
# [18] = tested on: GRIN1/GRIN2A vs GRIN1/GRIN2B (Homo sapiens); assay: Ratio of human NMDA 1A/2A receptor to human NMDA 1A/2B receptor was determined in xenopus oocytes; 1/14; conditions: Oocyte
# [19] = tested on: GRIN1/GRIN2A vs GRIN1/GRIN2B (Homo sapiens); assay: Ratio of human NMDA 1A/2A receptor to human NMDA 1A/2B receptor was determined in xenopus oocytes; 1/1; conditions: Oocyte
# [20] = tested on: GRIN1/GRIN2A vs GRIN1/GRIN2B (Homo sapiens); assay: Ratio of human NMDA 1A/2A receptor to human NMDA 1A/2B receptor was determined in xenopus oocytes; 1/7; conditions: Oocyte
# [21] = tested on: GRIN1/GRIN2A vs GRIN1/GRIN2B (Homo sapiens); assay: Ratio of human NMDA 1A/2A receptor to human NMDA 1A/2B receptor was determined in xenopus oocytes; 1/40; conditions: Oocyte
# [22] = tested on: GRIN1/GRIN2A vs GRIN1/GRIN2B (Homo sapiens); assay: Ratio of human NMDA 1A/2A receptor to human NMDA 1A/2B receptor was determined in xenopus oocytes; 1/11; conditions: Oocyte
# [23] = tested on: GRIN1/GRIN2A vs GRIN1/GRIN2B (Homo sapiens); assay: Ratio of human NMDA 1A/2A receptor to human NMDA 1A/2B receptor was determined in xenopus oocytes; 1/111; conditions: Oocyte
# [24] = tested on: Glutamate [NMDA] receptor; assay: The compound was tested in vitro for its inhibitory activity at 1 uM concentration against N-methyl-D-aspartate glutamate receptor by using [3H]CGP-39653 binding assay; Inactive; assay type: protein-complex assay
# [25] = tested on: GRIN1/GRIN2A vs GRIN1/GRIN2B (Homo sapiens); assay: Ratio of human NMDA 1A/2A receptor to human NMDA 1A/2B receptor was determined in xenopus oocytes; 1/13; conditions: Oocyte
# [26] = tested on: GRIN1/GRIN2A vs GRIN1/GRIN2B (Homo sapiens); assay: Ratio of human NMDA 1A/2A receptor to human NMDA 1A/2B receptor was determined in xenopus oocytes; 1/26; conditions: Oocyte
SMILES,pIC50 [1],pIC50 [2],ED50 [3],pIC50 [4],also measured
C[C@H](NC(c1cccc2nc(O)c(O)nc12)P(=O)(O)O)c1cccc2ccccc12 (some centres not stated),7.57,5.77,15 mg/kg,< 4.52,Ratio [5]: Active
O=P(O)(O)Cc1cc(-c2ccc(Cl)cc2)cc2nc(O)c(O)nc12,9.10,9.70,0.7 mg/kg,8.74,Ratio [6]: Active
CP(=O)(O)C(O)c1cc([N+](=O)[O-])cc2nc(O)c(O)nc12 (configuration not stated),,,,,inhibition [7]: 42%; Protection [8]: 0%
CN(Cc1ccccc1)C(c1cccc2nc(O)c(O)nc12)P(=O)(O)O (configuration not stated),6.80,6.22,,4.52,Ratio [9]: Active; Protection [8]: 40%
O=P(O)(O)Cc1cc(Br)cc2nc(O)c(O)nc12,8.82,,2.5 mg/kg,,
CCCNC(c1cc([N+](=O)[O-])cc2nc(O)c(O)nc12)P(=O)(O)O.Cl (configuration not stated),7.19,7.05,2.8 mg/kg,6.03,Ratio [10]: Active
CC(=O)N(C)C(c1cccc2nc(O)c(O)nc12)P(=O)(O)O (configuration not stated),6.07,5.55,,4.62,Ratio [6]: Active
C[C@H](NC(c1cccc2[nH]c(=O)c(=O)[nH]c12)P(=O)(O)O)c1ccc(Br)cc1 (some centres not stated),8.10,6.57,,4.53,
O=P(O)(O)C(Nc1ccccc1)c1cccc2nc(O)c(O)nc12 (configuration not stated),6.89,6.31,,5.21,Ratio [11]: Active; Protection [8]: 0%
Br.O=P(O)(O)C(NCc1ccccc1)c1cccc2nc(O)c(O)nc12 (configuration not stated),8.70,8.38,2 mg/kg,7.47,Ratio [11]: Active
O=P(O)(O)Cc1cccc2nc(O)c(O)nc12,,,0.7 mg/kg,,ED50 [12]: 6.7 mg/kg; pIC50 [13]: 7.52; pIC50 [14]: 8.70; ED50 [15]: 1.1 mg/kg; pIC50 [16]: 9.30; Ratio [17]: Active
O=P(O)(O)Cc1cc(Cl)cc2nc(O)c(O)nc12,8.77,,2.4 mg/kg,,
CC(=O)OC(c1cc([N+](=O)[O-])cc2nc(O)c(O)nc12)P(=O)(O)O (configuration not stated),8.09,,5 mg/kg,,
O=P(O)(O)C(N[C@H]1CCc2ccccc21)c1cccc2nc(O)c(O)nc12 (some centres not stated),6.92,7.22,2 mg/kg,6.09,Ratio [18]: Active
O=[N+]([O-])c1cc(C(O)P(=O)(O)O)c2nc(O)c(O)nc2c1 (configuration not stated),8.92,,1.2 mg/kg,,
O=P(O)(O)C(O)c1cccc2nc(O)c(O)nc12 (configuration not stated),8.82,8.96,0.5 mg/kg,9.15,Ratio [19]: Active
COC(c1cc([N+](=O)[O-])cc2nc(O)c(O)nc12)P(=O)(O)O (configuration not stated),7.77,,,,

SMILES,pIC50 [1],pIC50 [2],ED50 [3],pIC50 [4],also measured
Cl.NC(c1cc([N+](=O)[O-])cc2nc(O)c(O)nc12)P(=O)(O)O (configuration not stated),7.40,,11.6 mg/kg,,
Br.CP(=O)(O)C(NCc1ccccc1)c1cc([N+](=O)[O-])cc2nc(O)c(O)nc12 (configuration not stated),7.10,6.70,,5.89,Ratio [20]: Active; Protection [8]: 0%
O=P(O)(O)C(NCCc1ccccc1)c1cccc2nc(O)c(O)nc12 (configuration not stated),8.13,7.40,10 mg/kg,5.80,Ratio [21]: Active
C[C@@H](NC(c1cccc2nc(O)c(O)nc12)P(=O)(O)O)c1ccccc1 (some centres not stated),7.51,7.30,,6.24,Protection [8]: 60%; Ratio [22]: Active
C[C@H](NC(c1cccc2nc(O)c(O)nc12)P(=O)(O)O)c1ccc(Br)cc1 (some centres not stated),,,23 mg/kg,,Ratio [23]: Active
O=C(O)Cc1cccc2nc(O)c(O)nc12,6.60,,,,
O=P(O)(O)C(NC(c1ccccc1)c1ccccc1)c1cccc2nc(O)c(O)nc12 (configuration not stated),7.42,6.77,2.3 mg/kg,5.82,Ratio [6]: Active
Br.O=[N+]([O-])c1cc(C(NCc2ccccc2)P(=O)(O)O)c2nc(O)c(O)nc2c1 (configuration not stated),8.82,,1.5 mg/kg,,
O=P(O)(O)Cc1ccc2nc(O)c(O)nc2c1,,,,,IC50 [24]: Not Active
COC(=O)NC(c1cc([N+](=O)[O-])cc2nc(O)c(O)nc12)P(=O)(O)O (configuration not stated),6.43,6.96,8.8 mg/kg,5.85,Ratio [25]: Active
Cl.O=[N+]([O-])c1cc(C(NCC2CCCCC2)P(=O)(O)O)c2nc(O)c(O)nc2c1 (configuration not stated),8.52,,4 mg/kg,,
C[C@H](NC(c1cccc2nc(O)c(O)nc12)P(=O)(O)O)c1ccccc1 (some centres not stated),8.01,7.74,6.7 mg/kg,6.05,Ratio [9]: Active
CNC(c1cccc2nc(O)c(O)nc12)P(=O)(O)O (configuration not stated),5.96,6.10,,5.21,Ratio [11]: Active
O=P(O)(O)Cc1cc(F)cc2nc(O)c(O)nc12,9.00,,,,
Br.O=[N+]([O-])c1cc(C(NCc2ccccc2)P(=O)(O)Cc2ccccc2)c2nc(O)c(O)nc2c1 (configuration not stated),7.22,7.30,,5.89,Ratio [26]: Active; Protection [8]: 20%
Br.O=[N+]([O-])c1cc(C(NCc2ccco2)P(=O)(O)O)c2nc(O)c(O)nc2c1 (configuration not stated),8.39,,3.7 mg/kg,,
